This passage reports pest or weed control, Corn plant response rating (crop injury, 0 = no effect, 100 = complete kill) and plant injury results from patent publication US12077503B2, “Substituted cyclic amides and their use as herbicides” (FMC CORPORATION, priority 2015, dated 2024).

Holding throughout (type): in vivo
Assay [1] has as its system Kochia (Kochia scoparia). Description: Test A preemergence. To be noted: Bassia scoparia, pre-emergence, 240 h, preemergence, read-out: Plant response rating, Kochia. Put shortly:
(§1)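 Preemergence soil spray on seeded pots or post-emergence spray on 1–2 leaf plants, in loam–sand blend. Greenhouse ~10 d. Visual rating 0–100 against untreated plants.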

Assay [2] concerns barnyardgrass (Echinochloa crus-galli). Description: Test A preemergence. To be noted: Echinochloa crus-galli, pre-emergence, 240 h, preemergence, read-out: Plant response rating, Barnyardgrass. Summed up:
as §1

The subject of assay [3] is giant foxtail (Setaria faberii). Description: Test A preemergence. To be noted: Setaria faberi, pre-emergence, 240 h, preemergence, read-out: Plant response rating, Foxtail, Giant. Put shortly:
as §1

Assay [4] deals with pigweed (Amaranthus retroflexus). Description: Test A preemergence. To be noted: Amaranthus retroflexus, pre-emergence, 240 h, preemergence, read-out: Plant response rating, Pigweed.
For assay [5], the system named is ragweed (common ragweed, Ambrosia elatior). Description: Test A preemergence. The following applies: Ambrosia artemisiifolia, pre-emergence, 240 h, preemergence, read-out: Plant response rating, Ragweed. Summed up:
as §1

Assay [6] relates to ryegrass, Italian (Italian ryegrass, Lolium multiflorum). Description: Test A preemergence. The following applies: Lolium multiflorum, pre-emergence, 240 h, preemergence, read-out: Plant response rating, Ryegrass, Italian. Put shortly:
as §1

Assay [7] concerns Galium (catchweed bedstraw, Galium aparine). Description: Test A postemergence. To be noted: Galium, post-emergence, 240 h, 125 g ai/ha, postemergence; visual injury after approximately 10 d; 0 to 100 scale (0 no effect, 100 complete control); read-out: Plant response rating, Galium. Summed up:
as §1

For assay [8], the system named is Kochia (Kochia scoparia). Description: Test A postemergence. The following applies: Bassia scoparia, post-emergence, 240 h, 125 g ai/ha, postemergence; visual injury after approximately 10 d; 0 to 100 scale (0 no effect, 100 complete control); read-out: Plant response rating, Kochia. Put shortly:
as §1

Assay [9] has as its system barnyardgrass (Echinochloa crus-galli). Description: Test A postemergence. The following applies: Echinochloa crus-galli, post-emergence, 240 h, 125 g ai/ha, postemergence; visual injury after approximately 10 d; 0 to 100 scale (0 no effect, 100 complete control); read-out: Plant response rating, Barnyardgrass. Summed up:
as §1

The test system of assay [10] is blackgrass (Alopecurus myosuroides). Description: Test A postemergence. The following applies: Alopecurus myosuroides, post-emergence, 240 h, 125 g ai/ha, postemergence; visual injury after approximately 10 d; 0 to 100 scale (0 no effect, 100 complete control); read-out: Plant response rating, Blackgrass. Summed up:
as §1

For another assay, the system named is corn (Zea mays). Description: Test A postemergence. The following applies: Zea mays, post-emergence, 240 h, 125 g ai/ha, postemergence; visual injury after approximately 10 d; 0 to 100 scale (0 no effect, 100 complete control). Summed up:
as §1

Assay [11] has as its system giant foxtail (Setaria faberii). Description: Test A postemergence. To be noted: Setaria faberi, post-emergence, 240 h, 125 g ai/ha, postemergence; visual injury after approximately 10 d; 0 to 100 scale (0 no effect, 100 complete control); read-out: Plant response rating, Foxtail, Giant. Put shortly: as §1
Assay [12] has as its system pigweed (Amaranthus retroflexus). Description: Test A postemergence. The following applies: Amaranthus retroflexus, post-emergence, 240 h, 125 g ai/ha, postemergence; visual injury after approximately 10 d; 0 to 100 scale (0 no effect, 100 complete control); read-out: Plant response rating, Pigweed. Summed up: as §1
For assay [13], the system named is ragweed (common ragweed, Ambrosia elatior). Description: Test A postemergence. The following applies: Ambrosia artemisiifolia, post-emergence, 240 h, 125 g ai/ha, postemergence; visual injury after approximately 10 d; 0 to 100 scale (0 no effect, 100 complete control); read-out: Plant response rating, Ragweed. Summed up:
as §1

Assay [14] concerns ryegrass, Italian (Italian ryegrass, Lolium multiflorum). Description: Test A postemergence. To be noted: Lolium multiflorum, post-emergence, 240 h, 125 g ai/ha, postemergence; visual injury after approximately 10 d; 0 to 100 scale (0 no effect, 100 complete control); read-out: Plant response rating, Ryegrass, Italian. Put shortly:
as §1

In assay [15] the test system is wheat (Triticum aestivum). Description: Test A postemergence. The following applies: Triticum aestivum, post-emergence, 240 h, 125 g ai/ha, postemergence; visual injury after approximately 10 d; 0 to 100 scale (0 no effect, 100 complete control); read-out: Plant response rating, Wheat. Put shortly:
as §1

[16] abbreviates: 125 g ai/ha, visual rating after approx. 10 d, 0 to 100 scale where 0 is no effect and 100 is complete control.
Where [17] appears, read: 500 g ai/ha, 0 to 100 scale, 0 = no effect, 100 = complete control.

`O=C1NC[C@H](c2cnc(C(F)(F)F)nc2)[C@H]1C(=O)Nc1ccccc1F` [Compound 741]: the pest or weed control at 125 g/ha (in the assay on Kochia (Kochia scoparia) [1] (setting [16]); in [2] (setting [16]); in [3] (setting [16]); in assay [4] (setting [16]); in [5] (setting [16]); in assay [6] (setting [16])) was 0% throughout. In addition, the pest or weed control at 125 g/ha (in assay [7]; with Kochia (Kochia scoparia) [8]; in assay [9]; in assay [10]; in assay [11]; in [12]) was 0% in each case. The pest or weed control at 125 g/ha in [13] and in [14] was 0% each time. The pest or weed control at 500 g/ha in the assay on Kochia (Kochia scoparia) [1] (setting [17]) is 30%; in assay [2] (setting [17]) it was 0%; in assay [3] (setting [17]) it was 0%; in [4] (setting [17]) it was 40%; in assay [5] (setting [17]), 0%; in assay [6] (setting [17]), 0%. This molecule also came in with a Corn plant response rating (crop injury, 0 = no effect, 100 = complete kill) at 125 g/ha in the assay with corn (Zea mays) of 0%. Moreover, the plant injury at 125 g/ha in assay [15] was found to be 0%.
